Reference: patent US12662507B2, “Cytosine-type bridged nucleoside amidite crystals and method for producing same” (Yamasa Corporation, priority 2020, dated 2026)

Assay: Stability test: storage at 50° C. in tightly sealed glass vial, HPLC purity
Format: physicochemical
Procedure: As used herein, the term “decomposition degree” is defined as a value obtained by subtracting a […] when the stability test is performed for a certain period of time under the following conditions. The purity can be determined by HPLC. A higher decomposition degree means that the decomposition progressed and the purity decreased.
(§1) • Temperature: 50° C.; • Storage conditions: 20 mg of crystal is placed in a glass vial and stored in a tightly sealed state; (HPLC Conditions) • Column: YMC-Triart C18, 150×4.6 mm I.D. (manufactured by YMC); • Eluent: 5 mM triethylammonium acetate (pH 7.0) containing 80 vol % acetonitrile; and • Detection method: detection by UV 280 nm.
as §1, with “each of crystals A to C or amorphous form was” for “crystal is”, “state; and • Sampling time: after 1, 2, 3, 4, 6, and 20 (days), each specimen was sampled and subjected to HPLC analysis;” for “state;”, “YMC)” for “YMC);”
The leftmost column in the table indicates the number of elapsed days, and the column “Example 1 (Crystal A)” indicates the HPLC purity of the crystal A of the 5-methylcytosine-type bridged nucleoside amidite obtained in Example 1 (R^1=a benzamido group, R^2=a methyl group, R^3=a dimethoxytrityl group) after the corresponding number of elapsed days, and the column “Example 2 (crystal B)” indicates the HPLC purity of the crystal B of the 5-methylcytosine-type bridged nucleoside amidite obtained in Example 2 (R^1=a benzamido group, R^2=a methyl group, R^3=a dimethoxytrityl group) after the corresponding number of elapsed days, and the column “Example 3 (Crystal C) indicates the HPLC purity of the crystal C of 5-methylcytosine-type bridged nucleoside amidite obtained in Example 3 (R^1=a benzamido group, R^2=a methyl group, R^3=a dimethoxytrityl group) after the corresponding number of elapsed days, and the column “Control” indicates the HPLC purity of the amorphous form used as a control after the corresponding number of elapsed days. In the table, the cells marked by “-” indicate that no measurement was performed.

[1] = HPLC purity on day 0 minus HPLC purity after 20 days at 50° C.
[2] = after 1 day at 50° C., sealed glass vial
[3] = after 2 days at 50° C., sealed glass vial
[4] = after 3 days at 50° C., sealed glass vial
[5] = after 6 days at 50° C., sealed glass vial
[6] = after 20 days at 50° C., sealed glass vial
[7] = day 0 (start of stability test at 50° C.)
[8] = after 4 days at 50° C., sealed glass vial

Row | Compound | Decomposition Degree [1] | HPLC purity [2] | HPLC purity [3] | HPLC purity [4] | HPLC purity [5] | HPLC purity [6] | HPLC purity [7] | Decomposition Degree (stored at 50° C. for 20 days, in HPLC purity) | HPLC purity [8]
1 | COc1ccc(C(OCC23COC(C(n4cc(C)c(NC(=O)c5ccccc5)nc4=O)O2)C3OP(OCCC#N)N(C(C)C)C(C)C)(c2ccccc2)c2ccc(OC)cc2)cc1 (centres unmarked) [Control, N^4-benzoyl-5′-O-(4,4′-dimethoxytrityl)-2′-O-4′-C-methylene-5-methylcytidine-3′-O—[O-(2-cyanoethyl)-N,N-diisopropylphosphoramidite], reference compound] | 6.6 Δ % | 98.2% | 97.9% | 97.9% | 96.9% | 92.1% | 98.7% | 6.6% | –
2 | COc1ccc(C(OCC23COC(C(n4cc(C)c(NC(=O)c5ccccc5)nc4=O)O2)C3OP(OCCC#N)N(C(C)C)C(C)C)(c2ccccc2)c2ccc(OC)cc2)cc1 (centres unmarked) [Example 1, N^4-benzoyl-5′-O-(4,4′-dimethoxytrityl)-2′-O-4′-C-methylene-5-methylcytidine-3′-O—[O-(2-cyanoethyl)-N,N-diisopropylphosphoramidite]] | 0.7 Δ % | 98.4% | 98.1% | 98.3% | 98.1% | 98.1% | 98.8% | – | –
3 | COc1ccc(C(OCC23COC(C(n4cc(C)c(NC(=O)c5ccccc5)nc4=O)O2)C3OP(OCCC#N)N(C(C)C)C(C)C)(c2ccccc2)c2ccc(OC)cc2)cc1 (centres unmarked) [Example 2, N^4-benzoyl-5′-O-(4,4′-dimethoxytrityl)-2′-O-4′-C-methylene-5-methylcytidine-3′-O—[O-(2-cyanoethyl)-N,N-diisopropylphosphoramidite]] | 0.4 Δ % | 98.7% | 98.6% | – | 98.5% | 98.3% | 98.7% | – | 98.6%
4 | COc1ccc(C(OCC23COC(C(n4cc(C)c(NC(=O)c5ccccc5)nc4=O)O2)C3OP(OCCC#N)N(C(C)C)C(C)C)(c2ccccc2)c2ccc(OC)cc2)cc1 (centres unmarked) [Example 3, N^4-benzoyl-5′-O-(4,4′-dimethoxytrityl)-2′-O-4′-C-methylene-5-methylcytidine-3′-O—[O-(2-cyanoethyl)-N,N-diisopropylphosphoramidite]] | 0.5 Δ % | 98.7% | 98.6% | – | 98.5% | 98.1% | 98.6% | – | 98.5%
